Measured values: patent US4372975A, “Substituted 2-benzoyl-4-chloroglycinanilide derivatives, a process for their production, and their use as medicaments” (Pierre Fabre SA, priority 1977, dated 1983)
Counter-ions that a name gives are not always drawn. Like-named read-outs stand apart in the source and are kept apart here.

Key:
[1] = Toxicity test (LD50, Miller and Tainter); settings: mouse, in vivo, mice
Procedure: The compounds according to the invention were subjected to toxicity tests. It was tested in batches of 10 mice by oral, intraperitoneal and, in some cases, intravenous administration and was calculated in accordance with Miller and Tainter's method (Proc. Soc. exper. Biol. Med., 1944, 57, 261).

male Swiss mice = test: Rota-Rod test; type: in vivo; settings: falls off rod in less than 2 minutes
Procedure: This test is carried out on male Swiss mice. The mouse is placed on a 3 cm diameter wooden rod rotating at 5 revolutions per minute. The mice which succeed in remaining on the rod for at least 3 minutes in successive tests are selected and gathered into groups of 10 for the test of each dose. If the mouse falls off the rod in less than 2 minutes, the tested compound is considered to be effective. The results are expressed by the effective dose DE50 according to N. W. Dunham and T. S. Miva--J. amer. pharm. Ass., 1957, 46, 208.

Solubility = type: physicochemical; settings: for solubility / solubility in water (in words): in water; for solubility in ethanol: in ethanol at 95° GL
[2] = test system: pentamethylene tetrazole-induced tonic spasms; test: Anti-pentamethylene tetrazole activity; type: in vivo, male mice of the Swiss strain; settings: Mus musculus, male Swiss mice
Procedure: This test is carried out on a group of 10 male mice of the Swiss strain. 15 minutes after the subcutaneous injection of 125 mg/kg of pentamethylene tetrazole, the mice have tonic spasms of which the outcome is fatal.
For the test, the compound is administered orally 60 minutes before the injection of pentamethylene tetrazole. The animals are observed for 2 hours after administration of the pentamethylene tetrazole. In some particular cases, the tests were confirmed by intraperitoneal administration. The results are expressed by the effective dose DE50 (Goodman et Col.--J. Pharmacol. 108, 1953).
As Japanese Pat. No. 148,340 has been cited in copending application Ser. No. 916,651, filed June 19, 1978, comparisons between compounds of this closest prior art and the compounds of the invention were undertaken in the form of a controlled study.
The major consideration surrounded the similarity in the compounds, particularly in the substitution at the R position. The study compared ten compounds of the invention, which differed from the Japanese prior art only in that the compounds of the invention are alkylated at the R position while the prior art compounds are all hydrogenated at that position.
The compounds were tested for anti-pentamethylene tetrazole activity, the test described on p.

[3] = ip, intraperitoneal, read-out: DL50 I.P.
[4] = intravenous, read-out: DL50 I.V.
[5] = ip, intraperitoneal, 125 mg/kg s.c. pentamethylene tetrazole, read-out: anti-pentamethylene tetrazole activity DE50 I.P.
[6] = oral, 60 min before 125 mg/kg s.c. pentamethylene tetrazole, read-out: anti-pentamethylene tetrazole activity DE50 P.O.

| SMILES | LD50 [1, 3] | LD50 [1, 4] | LD50 ([1]; oral, read-out: DL50 oral) | Rota Rod DE50 V.O. (male Swiss mice) | solubility (Solubility) | ED50 [2, 5] | ED50 [2, 6] | solubility in dimethyl formamide (Solubility) | solubility in ethanol (Solubility) | solubility in water (in words) (Solubility) |
| --- | --- | --- | --- | --- | --- | --- | --- | --- | --- | --- |
| C=C(C)CNCC(=O)N(C)c1ccc(Cl)cc1C(=O)c1ccccc1 [Example 19, N-Methyl-N'-(2'-methylallyl)-(2-benzoyl-4-chloro)-glycinanilide hydrochloride] | 500 mg/kg | 60 mg/kg | 1500 mg/kg | 21 | 50 mg/mL | 1.1 mg/kg | 1.7 mg/kg |  |  |  |
| CN(CCO)CC(=O)N(C)c1ccc(Cl)cc1C(=O)c1ccccc1 [Example 14, N,N'-dimethyl-N'-(2'-hydroxyethyl)-(2-benzoyl-4-chloro)-glycinanilide] | 350 mg/kg | 55 mg/kg | 1200 mg/kg | 66 |  | 1.5 mg/kg | 1.7 mg/kg | 20% | 20% | insoluble |
| CN(C(=O)CNC1CCCCC1)c1ccc(Cl)cc1C(=O)c1ccccc1 [Example 11, N-Methyl-N'-cyclohexyl-(2-benzoyl-4-chloro)-glycinanilide hydrochloride] | 305 mg/kg | 50 mg/kg | 1050 mg/kg | 27 |  | 1.25 mg/kg | 1.35 mg/kg | 1% | 3% | insoluble |
| C#CC1(NCC(=O)N(C)c2ccc(Cl)cc2C(=O)c2ccccc2)CCCCC1 [Example 9, N-Methyl-N'-(1'-ethinyl-cyclohexyl)-(2-benzoyl-4-chloro)-glycinanilide hydrochloride] | 200 mg/kg |  | 560 mg/kg |  |  |  | 3.9 mg/kg | 2% | 3% | insoluble |
| CN(C(=O)CN1CCOCC1)c1ccc(Cl)cc1C(=O)c1ccccc1 [Example 18, N-Methyl-2-morpholino-(2'-benzoyl-4'-chloro)-acetanilide hydrochloride] | 750 mg/kg | 103 mg/kg | 1700 mg/kg | 60 | 100 mg/mL | 1.4 mg/kg | 3.3 mg/kg |  |  |  |
